From patent publication US20170088584A1, “USE OF […] DRUGS FOR OS[…] AND BONE REGENERATION” (UNIVERSIDAD NACIONAL AUTONOMA DE MEXICO, priority 2015, published 2017) come the findings set out here.

The test system of series [1] is critical-size calvarial defect in Wistar rats. Nature of the series: regeneration of critical-size calvarial defect with peptide in gelatin sponge scaffold. Format: in vivo. Particulars: 20-50 μg peptide per gelatin sponge (Gelfoam) disk, 9 mm defect, after 16 weeks. The source says: These peptides have been artificially synthesized and then combined with a three-dimensional scaffold made of gelatin (gelatin sponge), thus it was used for regeneration of critical size bone defects in an animal model: two groups of 14 male Wistar rats of approximately 250±20 grams of weight were used. Anesthesia of the rats was achieved through intraperitoneal injection of ketamine. The critical size defect was done by performing a 3 cm incision in the calvarial bone and then lifting a mucoperiostial flap. Subsequently, with a 9 mm trephine, a defect was created in the rat's calvarial bone. In the experimental group the formulation was introduced. It consisted of a 9 mm-diameter, porous, three-dimensional, gelatin-based (Gelfoam) disk containing the peptide at a concentration of 20-50 μg/disk. Previously, the dimensional scaffold (gelatin sponge) was incubated with a concentration of the corresponding peptide at 20-50 μg/disk of gelatin sponge and was vacuum dried. Control animals were treated only with a disk of gelatin sponge and a vehicle for re-suspension of the peptide (phosphate buffer pH 7.4) and another group remained without treatment. Blood supply is ensured at the surgical site. The operation site was sealed with Satin S-100, which consists primarily in gelatin. At the end of 16 weeks, the tissues were fixed with 10% formaldehyde and embedded in paraffin. […]

The subject of series [2] is ovariectomized Wistar rats with osteoporosis. The series can be described thus: bone microarchitecture by histology (Masson's trichrome) and μCT, ovariectomized osteoporotic rat model. Format: in vivo, Wistar rats (Rattus norvegicus). Particulars: 20-50 μg/kg i.p. daily 90 days; for μCT three-dimensional reconstruction of 5th lumbar vertebra / histology of femur epiphysis microarchitecture: 5 months after ovariectomy; for histology of femur epiphysis microarchitecture: Masson's trichrome; for histology of the body of the 5th lumbar vertebra: transverse and sagittal planes. On the procedure:
In FIGS. 5 and 6 histological sections of 5 μm thick and stained with Masson's Trichromic stain may be observed in which the microarchitecture of the epiphysis of the femur of the Wistar rats is analyzed in detail. Letter (A) of both figures corresponds to the group with no treatment which is the healthy control group. In the histological section stained with Masson's Trichromic stain, normal microarchitecture of the femoral epiphysis is observed with the cancellous bone and medullar spaces filled with bone marrow and bone occupying inter-medullar spaces. The epiphyseal plate and articular cartilage are also observed. […] Treatment with the vehicle lasted 90 days. […] These spaces have variable sizes. Articular cartilage and epiphyseal plate are also noted. […] Microphotography showing the microarchitecture of the femur epiphysis of Wistar rats. […] Articular cartilage and epiphyseal plate are also observed.
In FIGS. 7 and 8, microphotographs of histological sections of 5 μm thick of the 5th lumbar vertebra in the transverse and sagittal plane stained with Masson's Trichromic stain. Panel (A) of FIGS. 7 and 8 corresponds to the body of the 5th lumbar vertebra in the transverse (a) and sagittal (a′) planes of normal Wistar rats where cortical bone, bone trabeculate and spaces filled with bone marrow may be observed. Panel (B) of FIGS. 7 and 8 corresponds to the body of the 5th lumbar vertebra in the transverse (b) and sagittal (b′) planes of osteoporotic Wistar rats treated with physiological saline solution where cortical bone and bone trabeculate are observed with lesser width than the one of healthy Wistar rats. Medullar spaces are also observed and they are filled with fatty tissue with larger areas than those found in healthy controls.
(§1) We used 48 female rats of the Wistar strain, 3 months of age, with a weight of 250±20 gr. The animals were acclimated for 14 days at an ambient temperature of 22° C. with a photoperiod of 12 hours and relative humidity of 50%; food and water were ad libitum. The rats were sedated with acepromazine maleate (Relax 0.5 g/100 ml) at a dose of 20 μg/Kg of weight and as general anesthetic, tiletamine and zolazepam were used at a concentration of 25 mg/kg of weight.
Anesthetic maintenance was performed with constant flow of isoflurane. Once the rats were anesthetized we proceeded to perform the bilateral ovariectomy procedure for what the anesthetized rat was placed in lateral decubitus and shaved from the last rib forming a rectangle of approximately 4×3 cm. This area is disinfected with an electrolyzed super oxidant solution with neutral pH (Veteribac). Then a linear incision of approximately 2 cm up was performed with a scalpel to reach the muscle and expose the abdominal cavity. With extreme care, the cervix was located and identified. The cervix was ligated exactly on its middle portion with 6/0 polyglycolic acid sutures and subsequently the ovaries were eliminated with a scalpel. It was sutured by planes (abdominal muscles and skin) with 4/0 polyglycolic acid sutures and finally, the surgical area was cleaned with hydrogen peroxide. The rats were maintained in vivarium conditions during 5 months with 12 hours of light and 12 hours of darkness, at an average temperature of 22° C. with food and water ad libitum. […] Once this period concluded, 32 ovariectomized rats were divided into 4 groups of 8 rats each. […] The control group of osteoporotic rats […] was treated with physiological saline solution (pH 7.4) for 90 days. The healthy control group (16) rats received no treatment at all. Blood was obtained from all groups at the beginning and end of treatment (90 days). The 5th dorsal vertebra of the rats was analyzed by means of computed micro tomography (μCT) prior to euthanasia with CO2 on day 90 of treatment. The femur and 5th dorsal vertebrae were obtained, fixed in 10% paraformaldehyde and embedded in paraffin. […]

The test system is the same in series [3]. The series can be described thus: resistance to compression of the 5th lumbar vertebra, ovariectomized osteoporotic rat model. The note with it: 20-50 μg/kg i.p. daily for 90 days, started 5 months after ovariectomy; end of treatment. Format: in vivo, Wistar rats (Rattus norvegicus). Here is the method: FIG. 12 corresponds to a graph showing the resistance to compression of the vertebral body of the 5th lumbar vertebra obtained from Wistar rats at the end of the 90-day experimental period, 5 months after ovariectomy. Resistance Tests were performed using an Inströn Universal Testing Machine (mod. 5567) in the body of the 5th lumbar vertebra compressed at a speed of 1 mm/min up to achieve sample fracture. The exerted force is expressed in N/mm^2. […].
as §1
Anesthetic maintenance was performed with constant flow of isoflurane. Once the rats were anesthetized we proceeded to perform the bilateral ovariectomy procedure for what the anesthetized rat was placed in lateral decubitus and shaved from the last rib forming a rectangle of approximately 4×3 cm. […] The 5th dorsal vertebra of the rats was analyzed by means of computed micro tomography (μCT) prior to euthanasia with CO2 on day 90 of treatment. […]

Series [4] has as its system Human Osteoblasts derived from alveolar bone. Nature of the series: MTT cytotoxicity and cell proliferation assay. Format: cell-based. The note with it: 5 μg/ml, 4 days, medium with 0.5% fetal bovine serum. On the procedure:
The cytotoxic effect and the effect on cell proliferation was assessed by means of the MTT colorimetric assay (tetrazolium) [3-(4,5-dimethylthazol-2-yl)-2,5-diphenyl tetrazoliumbromide], during 1, 2, 3 and 4 days. Human Osteoblasts derived from alveolar bone were planted at a density of 1×10^4 in plates of 96 wells. The cells were treated with the peptides (independently) for 4 days with concentrations of 1, 3 and 5 μg/ml of each of the peptides. The medium was replaced daily, and the peptides administered in the same way. The controls used were medium with fetal bovine serum at 10% (positive control) and medium with fetal bovine serum at 0.5% (negative control.) the peptides were administered at the various concentrations contained in the medium at 0.5%. At the end of each day of treatment, 10 μL of MTT (3-(4,5-dimethylthiazol-2-yl)-2,5-diphenyltetrazolium bromide) solution (5 mg/mL) was added to the wells and incubated for 3 hours. At the end the supernatant was removed and extraction was carried out by means of DMSO for 1 hour at 37° C. The optical density of the supernatant was read in a reader for ELISA at 570 nm. The optical density reflects the number of living cells present in the culture. […] The peptide […] (SEQ ID NO: 2) at a 5 μg/ml concentration promotes cell proliferation to a 92% with respect to the positive control (10% fetal bovine serum) (B).

In series [5] the test system is ovariectomized Wistar rats with osteoporosis. The series can be described thus: histology of liver, kidney, heart, lung, brain, spleen, muscle after 90 days of peptide administration. Format: in vivo, Wistar rats (Rattus norvegicus). The note with it: 20-50 μg/kg i.p. for 90 days. Here is the method:
The control tissues in Panel (A) correspond to: normal tissues: L=liver, K=kidney, H=heart, Lu=lung, B=brain, M=muscle, S=spleen. Panel B) tissues of Wistar rats with osteoporosis treated with the pharmaceutical formulations object of this invention; L=liver, K=kidney, H=heart, Lu=lung, B=brain, S=Spleen M=muscle. […] This means that the synthetic peptides are harmless drugs for osteoporosis treatment, producing no adverse or secondary reactions at cellular or tissue level.

A short description of series [6]: biodistribution of peptide marked with pertechnetate (99mTc). Format: in vivo, Wistar rats. On the procedure: To determine the bio distribution of the peptides object of this invention, they were marked using technetium in the form of pertechnetate (TcO4−). In order to perform the marking, a working solution which contained: 40 ug of the peptides object of this invention, 50 ul of tartrate (2 mg/ml of acetate buffer pH5), 10 μl of SnCl2 (2 mg/ml 0.1 N HCl), 50 μl of gentisic acid (1 mg/ml) and 50 μl of 99m Tc—Na TCO4− (5 mCi) was prepared. Male Wistar rats of 250 g of weight which were at a temperature of 22° C. with a photoperiod of 12 hours and relative humidity at 50% were used. Food and water was ad libitum. To assess bio distribution, groups of three rats were formed and injected intraperitoneally with 40 μl of the marked peptide. They were sacrificed by an overdose of anesthetic at 30’, 1, 3, 6 and 24 hours. Blood samples from the heart, lung, liver, spleen, kidneys, stomach, small intestine, large intestine, muscle, bone, thyroid, brain and tooth were collected. These organs were weighed on an analytical balance and subsequently placed in a NaI(TI) solid scintillation counter to detect the activity of each one of the organs. With this procedure, the percentage of the injected dose per gram of tissue (% ID/g) was obtained.

“Also recorded” adds a separate entry of the source.

Take AVIFM: the “filling of the critical-size calvarial defect with bone” value in series [1] was found to be 100%. For the same substance, in series [2], the “μCT three-dimensional reconstruction of 5th lumbar vertebra” value was “cancellous bone is present in almost the entire vertebral body”; the “histology of femur epiphysis microarchitecture” value is “bone trabeculae forms a network structure similar to the microarchitecture of healthy control group; also recorded: full medullar spaces without evidence of osteoporotic spaces and with normal bone microarchitecture”; the “histology of the body of the 5th lumbar vertebra” value is recorded as “cortical bone is observed similar to that of healthy Wistar rats”. For the same substance, in series [3], the “resistance to compression of 5th lumbar vertebra, difference compared to healthy control” value worked out at 2%. The “cell proliferation with regard to the positive control (10% fetal bovine serum)” value in series [4] amounted to 82%.
As for MGTSSTDSQQAQHRRCSTSN, in series [1], the “filling of the critical-size calvarial defect with bone” value turned out to be 100%. In addition, the “μCT three-dimensional reconstruction of 5th lumbar vertebra” value in series [2] was “cancellous bone is present in almost the entire vertebral body”. In addition, in series [2], the “histology of femur epiphysis microarchitecture” value is “bone trabeculae forms a network structure similar to the microarchitecture of healthy control group; also recorded: full medullar spaces without evidence of osteoporotic spaces and with normal bone microarchitecture”. For the same substance, in series [2], the “histology of the body of the 5th lumbar vertebra” value is listed as “cortical bone is observed similar to that of healthy Wistar rats”. Further, the “resistance to compression of 5th lumbar vertebra, difference compared to healthy control” value in series [3] amounted to 19%. In series [4], the “cell proliferation with regard to the positive control (10% fetal bovine serum)” value came to 92%. Besides, the “histological alteration of liver, kidney, heart, lung, brain, spleen, muscle” value in series [5] was “no histological feature that indicates that peptide administration in physiological saline solution causes microscopic alteration in these tissues”. Also, the “percentage of injected dose per gram of tissue (% ID/g)” value in series [6] (bone, 30′) was determined as 1.3%; in series [6] (bone, 1 hour), 1.4%; in series [6] (bone, 24 hours), 0.4%; in series [6] (kidney, 1 hour) it was 1.6%; in series [6] (kidney, 3 hours), 2.6%; in series [6] (kidney, 6 hours), 1.3%. For the same substance, the “percentage of injected dose per gram of tissue (% ID/g)” value in series [6] (kidney, 24 hours) came to 0.9%; in series [6] (large intestine, 30′ after i.p. injection), 3.6%; in series [6] (large intestine, 24 hours), 0.006%; in series [6] (liver, 1 hour), 3.4%; in series [6] (liver, 24 hours), 0.2%.
